One block for each molecule: values may come before it.
Tested on: 313798-341-R-J2-PDC spheroids, viability
Assay: Anticancer human tumor 313798-341-R-J2-PDC patient-derived cervical squamous cell carcinoma cell line growth inhibition [PI3K]
Details: spheroids with HUVEC and MSC; for IC50: curve of first compound; for viability, T/C: stronger effect = lower value
Summary of the method: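 High-throughput combination screen: PI3K inhibitors crossed with targeted small molecules on complex spheroids of tumor cells, HUVEC and MSCs at 37 degrees C, 5% CO2. Top concentration was at or near clinical Cmax (otherwise 10 microM), with half-log decrements.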

[1] = second compound 0.0316 µM, first compound 0.0316 µM
[2] = second compound 0.0316 µM, first compound 0.1 µM
[3] = second compound 0.0316 µM, first compound 0.316 µM
[4] = second compound 0.0316 µM, first compound 1 µM
[5] = second compound 0.0316 µM, first compound 3.16 µM
[6] = second compound 0.0316 µM, first compound 10 µM
[7] = second compound 0.1 µM, first compound 0.0316 µM
[8] = second compound 0.1 µM, first compound 0.1 µM
[9] = second compound 0.1 µM, first compound 0.316 µM
[10] = second compound 0.1 µM, first compound 1 µM
[11] = second compound 0.1 µM, first compound 3.16 µM
[12] = second compound 0.1 µM, first compound 10 µM
[13] = second compound 0.316 µM, first compound 0.0316 µM
[14] = second compound 0.316 µM, first compound 0.1 µM
[15] = second compound 0.316 µM, first compound 0.316 µM
[16] = second compound 0.316 µM, first compound 1 µM
[17] = second compound 0.316 µM, first compound 3.16 µM
[18] = second compound 0.316 µM, first compound 10 µM
[19] = second compound 1 µM, first compound 0.0316 µM
[20] = second compound 1 µM, first compound 0.1 µM
[21] = second compound 1 µM, first compound 0.316 µM
[22] = second compound 1 µM, first compound 1 µM
[23] = second compound 1 µM, first compound 3.16 µM
[24] = second compound 1 µM, first compound 10 µM
[25] = second compound 3.16 µM, first compound 0.0316 µM
[26] = second compound 3.16 µM, first compound 0.1 µM
[27] = second compound 3.16 µM, first compound 0.316 µM
[28] = second compound 3.16 µM, first compound 1 µM
[29] = second compound 3.16 µM, first compound 3.16 µM
[30] = second compound 3.16 µM, first compound 10 µM
[31] = second compound 10 µM, first compound 0.0316 µM
[32] = second compound 10 µM, first compound 0.1 µM
[33] = second compound 10 µM, first compound 0.316 µM
[34] = second compound 10 µM, first compound 1 µM
[35] = second compound 10 µM, first compound 3.16 µM
[36] = second compound 10 µM, first compound 10 µM
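Also: spheroids exposed to compounds for seven days.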
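For viability, T/C in this document: 100% = DMSO vehicle control viability.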

IC50 (second compound 0.0316 µM): > 10 µM
IC50 (second compound 0.1 µM): > 10 µM
IC50 (second compound 0.316 µM): > 10 µM
IC50 (second compound 1 µM): > 10 µM
IC50 (second compound 3.16 µM): > 10 µM
IC50 (second compound 10 µM): < 0.0316 µM
Compound: CC(Cn1ccc(-c2ccc(C#N)c(Cl)c2)n1)NC(=O)c1cc(C(C)O)[nH]n1 (stereo unspecified) + Cc1nc(NC(=O)N2CCCC2C(N)=O)sc1-c1ccnc(C(C)(C)C(F)(F)F)c1
viability, T/C [1]: 103%
viability, T/C [2]: 93.9%
viability, T/C [3]: 97.6%
viability, T/C [4]: 99.9%
viability, T/C [5]: 111%
viability, T/C [6]: 92.1%
viability, T/C [7]: 114%
viability, T/C [8]: 109%
viability, T/C [9]: 103%
viability, T/C [10]: 113%
viability, T/C [11]: 114%
viability, T/C [12]: 103%
viability, T/C [13]: 114%
viability, T/C [14]: 104%
viability, T/C [15]: 118%
viability, T/C [16]: 114%
viability, T/C [17]: 108%
viability, T/C [18]: 98.4%
viability, T/C [19]: 96.7%
viability, T/C [20]: 93.6%
viability, T/C [21]: 94.8%
viability, T/C [22]: 85.2%
viability, T/C [23]: 97.6%
viability, T/C [24]: 84.1%
viability, T/C [25]: 67.5%
viability, T/C [26]: 57.3%
viability, T/C [27]: 66.1%
viability, T/C [28]: 61.7%
viability, T/C [29]: 59.1%
viability, T/C [30]: 52.5%
viability, T/C [31]: 37.2%
viability, T/C [32]: 33.2%
viability, T/C [33]: 39.3%
viability, T/C [34]: 36.3%
viability, T/C [35]: 37.4%
viability, T/C [36]: 30.9%

IC50 (second compound 0.0316 µM): > 10 µM
IC50 (second compound 0.1 µM): > 10 µM
IC50 (second compound 0.316 µM): < 0.0316 µM
IC50 (second compound 1 µM): < 0.0316 µM
IC50 (second compound 3.16 µM): < 0.0316 µM
IC50 (second compound 10 µM): < 0.0316 µM
Compound: CC1(C)CCC(Nc2ncc(C(F)(F)F)c(-c3c[nH]c4c(P(C)(C)=O)c(C#N)ccc34)n2)CN1 (stereo unspecified) + Cc1nc(NC(=O)N2CCCC2C(N)=O)sc1-c1ccnc(C(C)(C)C(F)(F)F)c1
viability, T/C [1]: 64.5%
viability, T/C [2]: 49.2%
viability, T/C [3]: 52.4%
viability, T/C [4]: 54.4%
viability, T/C [5]: 58.8%
viability, T/C [6]: 71.9%
viability, T/C [7]: 54.9%
viability, T/C [8]: 50.8%
viability, T/C [9]: 50.3%
viability, T/C [10]: 53.1%
viability, T/C [11]: 54.1%
viability, T/C [12]: 66.6%
viability, T/C [13]: 45.7%
viability, T/C [14]: 39.6%
viability, T/C [15]: 35.5%
viability, T/C [16]: 38.7%
viability, T/C [17]: 43.8%
viability, T/C [18]: 52.3%
viability, T/C [19]: 34.7%
viability, T/C [20]: 32.2%
viability, T/C [21]: 35.5%
viability, T/C [22]: 34.2%
viability, T/C [23]: 36%
viability, T/C [24]: 33.7%
viability, T/C [25]: 27.9%
viability, T/C [26]: 25%
viability, T/C [27]: 23.7%
viability, T/C [28]: 23.3%
viability, T/C [29]: 26.2%
viability, T/C [30]: 10.8%
viability, T/C [31]: 16.9%
viability, T/C [32]: 18.7%
viability, T/C [33]: 16.6%
viability, T/C [34]: 17.8%
viability, T/C [35]: 17.2%
viability, T/C [36]: 1.7%

IC50 (second compound 0.0316 µM): > 10 µM
IC50 (second compound 0.1 µM): > 10 µM
IC50 (second compound 0.316 µM): > 10 µM
IC50 (second compound 1 µM): > 10 µM
IC50 (second compound 3.16 µM): 5.98 µM
IC50 (second compound 10 µM): < 0.0316 µM
Compound: Cn1nccc1Nc1nccc(-c2ccn(C(CO)c3ccc(Cl)c(F)c3)c(=O)c2)n1 (stereo unspecified) + Cc1nc(NC(=O)N2CCCC2C(N)=O)sc1-c1ccnc(C(C)(C)C(F)(F)F)c1
viability, T/C [1]: 102%
viability, T/C [2]: 90%
viability, T/C [3]: 92.9%
viability, T/C [4]: 102%
viability, T/C [5]: 102%
viability, T/C [6]: 109%
viability, T/C [7]: 95.7%
viability, T/C [8]: 103%
viability, T/C [9]: 99%
viability, T/C [10]: 103%
viability, T/C [11]: 113%
viability, T/C [12]: 106%
viability, T/C [13]: 97.4%
viability, T/C [14]: 102%
viability, T/C [15]: 103%
viability, T/C [16]: 98.8%
viability, T/C [17]: 109%
viability, T/C [18]: 103%
viability, T/C [19]: 88.8%
viability, T/C [20]: 81.3%
viability, T/C [21]: 91.9%
viability, T/C [22]: 90.4%
viability, T/C [23]: 89.4%
viability, T/C [24]: 71.3%
viability, T/C [25]: 57.9%
viability, T/C [26]: 60.4%
viability, T/C [27]: 55.7%
viability, T/C [28]: 56.5%
viability, T/C [29]: 52.9%
viability, T/C [30]: 45.4%
viability, T/C [31]: 35.4%
viability, T/C [32]: 22.1%
viability, T/C [33]: 31.6%
viability, T/C [34]: 26.8%
viability, T/C [35]: 29.2%
viability, T/C [36]: 24.1%
